Reference: BindingDB's records for doi:10.1021/jm061344o (Incyte, 2007)

Assay: Inhibition of Her2 sheddase activity in BT474 cell line

`O=C(NO)[C@H]1CCCN[C@@H]1C(=O)N1CC[C@H](c2ccccc2)C1` [(2S,3S)-N-hydroxy-2-((R)-3-phenylpyrrolidine-1-carbonyl)piperidine-3-carboxamide] gave an IC50 of 560 nM.
With `O=C(NO)[C@H]1CC2(CC2)CN[C@@H]1C(=O)N1CCN2c3ccccc3CC2C1` (stereo partly drawn) [(6S,7S)-N-hydroxy-6-(3,4,10,10a-tetrahydropyrazino[1,2-a]indol-2(1H)-ylcarbonyl)-5-azaspiro[2.5]octane-7-carboxamide] the IC50 was 280 nM.
For `O=C(NO)[C@H]1CC2(CC2)CN[C@@H]1C(=O)N1CCC(c2ccccc2)CC1` [(6S,7S)-N-hydroxy-6-[(4-phenylpiperidin-1-yl)carbonyl]-5-azaspiro[2.5]octane-7-carboxamide], the IC50 was 140 nM.
